The source made the active and inactive calls.
Experiments:
Candida albicans = assay: Antifungal activity against Candida albicans at 250 ug/ml after 72 hrs by disc diffusion method; format: functional; conditions: for zone of inhibition at 250 µg/mL: read-out: IZ
Enterococcus faecalis = assay: Antibacterial activity against Enterococcus faecalis at 250 ug/ml after 24 to 45 hrs by disc diffusion method; format: functional; conditions: for zone of inhibition at 250 µg/mL: read-out: IZ
Proteus vulgaris = assay: Antibacterial activity against Proteus vulgaris at 250 ug/ml after 24 to 45 hrs by disc diffusion method; format: functional; conditions: read-out: IZ
Staphylococcus aureus = assay: Antibacterial activity against Staphylococcus aureus at 250 ug/ml after 24 to 45 hrs by disc diffusion method; format: functional; conditions: read-out: IZ
Klebsiella pneumoniae = assay: Antibacterial activity against Klebsiella pneumoniae at 250 ug/ml after 24 to 45 hrs by disc diffusion method; format: functional; conditions: read-out: IZ
Aspergillus niger = assay: Antifungal activity against Aspergillus niger at 50 ug/ml after 72 hrs by disc diffusion method; format: functional, organism-based
Achaea janata [1] = assay: Antifeedant activity against fourth instar larvae of Achaea janata fed on compound treated castor leaves at 200 ppm after 24 hrs by leaf disc method; format: functional, organism-based
Penicillium = assay: Antifungal activity against Penicillium at 50 ug/ml after 72 hrs by disc diffusion method; format: functional, organism-based
Escherichia coli = assay: Antibacterial activity against Escherichia coli at 250 ug/ml after 24 to 45 hrs by disc diffusion method; format: functional; conditions: read-out: IZ
Pseudomonas = assay: Antibacterial activity against Pseudomonas at 250 ug/ml after 24 to 45 hrs by disc diffusion method; format: functional; conditions: read-out: IZ
Achaea janata [2] = assay: Antifeedant activity against fourth instar larvae of Achaea janata fed on compound treated castor leaves at 150 ppm after 24 hrs by leaf disc method; format: functional, organism-based

Structure (SMILES)	Activity (Candida albicans)	Activity (Enterococcus faecalis)	zone of inhibition at 250 µg/mL (Proteus vulgaris) [mm]	zone of inhibition at 250 µg/mL (Staphylococcus aureus) [mm]	zone of inhibition at 250 µg/mL (Klebsiella pneumoniae) [mm]	Activity (Aspergillus niger)	Activity (Achaea janata [1])	Activity (Penicillium)	zone of inhibition at 250 µg/mL (Escherichia coli) [mm]	zone of inhibition at 250 µg/mL (Pseudomonas) [mm]	zone of inhibition at 250 µg/mL (Candida albicans) [mm]	Activity (Achaea janata [2])	zone of inhibition at 250 µg/mL (Enterococcus faecalis) [mm]
Brc1cccc2c1N1Cc3cccc(Br)c3N(C2)C1	inactive	inactive	8	8	8	inactive	Active	inactive	13	8			
Fc1ccc2c(c1)CN1CN2Cc2cc(F)ccc21		inactive	13	13	13	inactive	Active	inactive	13	8	8		
Fc1cc(F)c2c(c1)CN1CN2Cc2cc(F)cc(F)c21	inactive	inactive	8	8	8	inactive	Active	inactive	13	8		Active	
Cc1cc(Cl)c2c(c1)CN1CN2Cc2cc(C)cc(Cl)c21	inactive	inactive	13	13	13	inactive	Active	inactive	13	8			
Clc1cccc2c1N1Cc3cccc(Cl)c3N(C2)C1			8	13	8	inactive	Active	inactive	8	8	8		13
Brc1ccc2c(c1)CN1CN2Cc2cc(Br)ccc21			13	20	20	Active	Active	Active	20	13	20		20
Brc1cccc2c1CN1CN2Cc2c(Br)cccc21			8	8	13	inactive	Active	inactive	8	13	8		13
O=C(c1ccccc1)c1cc(Cl)cc2c1N1Cc3cc(Cl)cc(C(=O)c4ccccc4)c3N(C2)C1		inactive	13	13	13	Active	Active	inactive	13	13	20		
COc1cc2c(cc1Cl)N1Cc3cc(OC)c(Cl)cc3N(C2)C1			20	20	20	inactive	Active	Active	20	20	20		8
Clc1ccc2c(c1)CN1CN2Cc2cc(Cl)ccc21	inactive	inactive	13	13	13	inactive	Active	inactive	13	13			
Clc1cccc2c1CN1CN2Cc2c(Cl)cccc21			8	13	8	inactive	Active	inactive	8	8	8		13
COc1ccc2c(c1Br)CN1CN2Cc2c1ccc(OC)c2Br			20	20	20	Active	Active	Active	20	20	13		13
Cc1ccc2c(c1Cl)CN1CN2Cc2c1ccc(C)c2Cl			13	13	13	inactive	Active	inactive	13	13	13		8
Cc1ccc2c(c1I)CN1CN2Cc2c1ccc(C)c2I			8	8	13	inactive	Active	inactive	8	13	13		13
Cc1cc(I)c2c(c1)CN1CN2Cc2cc(C)cc(I)c21			13	13	13	inactive	Active	inactive	13	8	13		8
Cc1cc(F)c2c(c1)CN1CN2Cc2cc(C)cc(F)c21		inactive	13	13	13	inactive	Active	inactive	13	8	8		
Cc1cc2c(cc1I)N1Cc3cc(C)c(I)cc3N(C2)C1		inactive	8	13	8	inactive	Active	inactive	8	8	13		
Cc1cc2c(cc1F)N1Cc3cc(C)c(F)cc3N(C2)C1			13	13	13	inactive	Active	inactive	13	13	13		8
Cc1cc(Br)cc2c1N1Cc3cc(Br)cc(C)c3N(C2)C1			8	8	13	inactive	Active	inactive	8	13	8		13
Brc1ccc2c(c1)N1Cc3ccc(Br)cc3N(C2)C1		inactive	8	13	8	inactive	Active	inactive	8	8	8		
Fc1cccc2c1N1Cc3cccc(F)c3N(C2)C1		inactive	8	8	8	inactive	Active	inactive	13	8	8		
Clc1ccc2c(c1)N1Cc3ccc(Cl)cc3N(C2)C1			13	13	13	inactive	Active	inactive	13	13	8		13
Cc1ccc2c(c1Br)CN1CN2Cc2c1ccc(C)c2Br			13	13	13	inactive	Active	inactive	13	13	8		8
